Assay results as given in ChEMBL document CHEMBL6071136, “Discovery of macrocyclic covalent inhibitors for severe acute respiratory syndrome coronavirus 2 3CL protease” (Bioorg Med Chem, 2024).

Assays:
[1] = Metabolic stability in rat liver microsomes assessed as half life measured upto 60 mins in presence of NADPH by LC/MS-MS analysis; format: ADME, Microsome
[2] = Metabolic stability in human liver microsomes assessed as half life measured upto 60 mins in presence of NADPH by LC/MS-MS analysis; format: ADME, Microsome
[3] = Apparent permeability across apical to basolateral side in human Caco-2 cells incubated for 2 hrs by LC-MS/MS analysis; format: ADME, cell-based
[4] = Cmax in Sprague-Dawley rat at 10 mg/kg, po measured upto 24 hrs by LC/MS-MS analysis; format: ADME, organism-based; conditions: in vivo
[5] = Half-life in Sprague-Dawley rat at 10 mg/kg, po measured upto 24 hrs by LC/MS-MS analysis; format: ADME, organism-based; conditions: in vivo
[6] = AUClast in Sprague-Dawley rat at 10 mg/kg, po measured upto 24 hrs by LC/MS-MS analysis; format: ADME, organism-based; conditions: in vivo
[7] = target: Replicase polyprotein 1ab (Severe acute respiratory syndrome coronavirus 2, UniProt P0DTD1); experiment: Inhibition of SARS-CoV-2 3CL protease using Dabcyl-KTSAVLQSGFRKM-(Edans) as substrate preincubated for 30 mins followed by substrate addition and measured after 60 mins by fluorescence based microplate reader assay
SARS-CoV-2 = experiment: microbe, parasite or virus in culture; conditions: Severe acute respiratory syndrome coronavirus 2, Huh-7, 24 h
[8] = Metabolic stability in human liver S9 fraction assessed as half life measured upto 60 mins by LC/MS-MS analysis; format: ADME, subcellular
[9] = Efflux ratio of apparent permeability across basolateral to apical side over apical to basolateral side in human Caco-2 cells; format: ADME, cell-based
[10] = Stability of compound in FaSSGF at 10 uM measured after 4 hrs by LC-MS analysis; format: physicochemical
[11] = Tmax in Sprague-Dawley rat at 10 mg/kg, po measured upto 24 hrs by LC/MS-MS analysis; format: ADME, organism-based; conditions: in vivo
[12] = Cmax in Sprague-Dawley rat at 50 mg/kg, po measured upto 24 hrs by LC/MS-MS analysis; format: ADME, organism-based; conditions: in vivo
[13] = Tmax in Sprague-Dawley rat at 50 mg/kg, po measured upto 24 hrs by LC/MS-MS analysis; format: ADME, organism-based; conditions: in vivo
[14] = Half-life in Sprague-Dawley rat at 50 mg/kg, po measured upto 24 hrs by LC/MS-MS analysis; format: ADME, organism-based; conditions: in vivo
[15] = AUClast in Sprague-Dawley rat at 50 mg/kg, po measured upto 24 hrs by LC/MS-MS analysis; format: ADME, organism-based; conditions: in vivo

| SMILES | half-life [2] | Papp A→B at 2 h [3] | IC50 [7] | EC50 (SARS-CoV-2) | efflux ratio [9] | further results |
| --- | --- | --- | --- | --- | --- | --- |
| CC(C)(C)[C@H](NC(=O)C(F)(F)F)C(=O)N1C[C@H]2[C@@H]([C@H]1C(=O)N[C@H](C#N)C[C@@H]1CCNC1=O)C2(C)C | 20.6 min | 0.27 ×10⁻⁶ cm/s | – | – | – | half-life [1]: 127 min; Cmax [4]: 2840 ng/mL; half-life [5]: 76.2 min; AUC(0-t) at 24 h [6]: 2020 ng·h/mL |
| CC1(C)CCCC[C@@H]2C[C@@H](C[C@@H](C#N)NC(=O)[C@@H]3[C@@H]4[C@H](CN3C(=O)[C@H]1NC(=O)C(F)(F)F)C4(C)C)C(=O)N2 | 4.4 min | – | 10 nM | 84 nM | – | – |
| CC1(C)CNC(=O)[C@@H]2C[C@@H](C[C@@H](C#N)NC(=O)[C@@H]3[C@@H]4[C@H](CN3C(=O)[C@H]1NC(=O)COc1ccc(F)cc1F)C4(C)C)C(=O)N2 | 6.3 min | – | 70 nM | 1550 nM | – | – |
| CC1(C)COC(=O)[C@@H]2C[C@@H](C[C@@H](C#N)NC(=O)[C@@H]3[C@@H]4[C@H](CN3C(=O)[C@H]1NC(=O)C1CC1)C4(C)C)C(=O)N2 | 154 min | 0.08 ×10⁻⁶ cm/s | 12 nM | 190 nM | 22 | half-life [8]: > 180 min |
| CC1(C)COC(=O)[C@@H]2C[C@@H](C[C@@H](C#N)NC(=O)[C@@H]3[C@@H]4[C@H](CN3C(=O)[C@H]1NC(=O)C(F)(F)c1ccc(F)cc1)C4(C)C)C(=O)N2 | 6 min | 0.1 ×10⁻⁶ cm/s | 22 nM | 130 nM | 206 | – |
| CC1(C)CNC(=O)[C@@H]2C[C@@H](C[C@@H](C#N)NC(=O)[C@@H]3[C@@H]4[C@H](CN3C(=O)[C@H]1NC(=O)C1CC1)C4(C)C)C(=O)N2 | > 180 min | – | 32 nM | 6570 nM | – | – |
| CC1(C)CCCC[C@@H]2C[C@@H](C[C@@H](C#N)NC(=O)[C@@H]3[C@@H]4[C@H](CN3C(=O)[C@H]1NC(=O)OCc1ccccc1)C4(C)C)C(=O)N2 | – | – | 27 nM | 31 nM | – | – |
| CC1(C)COC(=O)[C@@H]2C[C@@H](C[C@@H](C#N)NC(=O)[C@@H]3[C@@H]4[C@H](CN3C(=O)[C@H]1NC(=O)CC1CC1)C4(C)C)C(=O)N2 | 78 min | – | 21 nM | 310 nM | – | – |
| COC(=O)N[C@@H]1C(=O)N2C[C@H]3[C@@H]([C@H]2C(=O)N[C@H](C#N)C[C@@H]2C[C@H](NC2=O)C(=O)OCCC1(C)C)C3(C)C | > 180 min | 0.03 ×10⁻⁶ cm/s | 8.9 nM | 179 nM | 65 | – |
| CC1(C)COC(=O)[C@@H]2C[C@@H](C[C@@H](C#N)NC(=O)[C@@H]3[C@@H]4[C@H](CN3C(=O)[C@H]1NC(=O)C(F)(F)F)C4(C)C)C(=O)N2 | > 180 min | 0.5 ×10⁻⁶ cm/s | 34 nM | 181 nM | 34 | half-life [8]: > 180 min |
| CC1(C)CNC(=O)[C@@H]2C[C@H](C[C@@H](C#N)NC(=O)[C@@H]3[C@@H]4[C@H](CN3C(=O)[C@H]1NC(=O)OCc1ccccc1)C4(C)C)C(=O)N2 | – | 0.05 ×10⁻⁶ cm/s | 12 nM | – | 103 | – |
| COC(=O)N[C@@H]1C(=O)N2C[C@H]3[C@@H]([C@H]2C(=O)N[C@H](C#N)C[C@@H]2C[C@@H](CCCCC1(C)C)NC2=O)C3(C)C | 13.9 min | – | 4.6 nM | 100 nM | – | – |
| CC1(C)CCOC(=O)[C@@H]2C[C@@H](C[C@@H](C#N)NC(=O)[C@@H]3[C@@H]4[C@H](CN3C(=O)[C@H]1NC(=O)C(F)(F)F)C4(C)C)C(=O)N2 | > 180 min | 0.02 ×10⁻⁶ cm/s | 12 nM | 26 nM | 342 | half-life [1]: > 180 min; Stability [10]: Stable; Cmax [4]: 16.2 ng/mL; Tmax [11]: 15 min; half-life [5]: 20 min; AUC(0-t) at 24 h [6]: 5.94 ng·h/mL; Cmax [12]: 102 ng/mL; Tmax [13]: 20 min; half-life [14]: 28.3 min; AUC(0-t) at 24 h [15]: 72.9 ng·h/mL |
| CN1CC(C)(C)[C@H](NC(=O)OCc2ccccc2)C(=O)N2C[C@H]3[C@@H]([C@H]2C(=O)N[C@H](C#N)C[C@@H]2C[C@H](NC2=O)C1=O)C3(C)C | – | 0.17 ×10⁻⁶ cm/s | > 10000 nM | > 10000 nM | 12 | half-life [8]: 0.17 min |
| Cc1cccc(C)c1OCC(=O)N[C@@H]1C(=O)N2C[C@H]3[C@@H]([C@H]2C(=O)N[C@H](C#N)C[C@@H]2C[C@H](NC2=O)C(=O)NCC1(C)C)C3(C)C | 4 min | 0.13 ×10⁻⁶ cm/s | 320 nM | 5570 nM | 64 | – |
| CC1(C)CNC(=O)[C@@H]2C[C@H](C[C@@H](C#N)NC(=O)[C@@H]3[C@@H]4[C@H](CN3C(=O)[C@H]1NC(=O)C(F)(F)F)C4(C)C)C(=O)N2 | > 180 min | 0.09 ×10⁻⁶ cm/s | 75 nM | – | 10 | – |
| CC(C)(C)C(=O)N[C@@H]1C(=O)N2C[C@H]3[C@@H]([C@H]2C(=O)N[C@H](C#N)C[C@@H]2C[C@H](NC2=O)C(=O)NCC1(C)C)C3(C)C | – | – | 307 nM | – | – | – |
| COC(=O)N[C@@H]1C(=O)N2C[C@H]3[C@@H]([C@H]2C(=O)N[C@H](C#N)C[C@@H]2C[C@H](NC2=O)C(=O)OCC1(C)C)C3(C)C | > 180 min | 0.16 ×10⁻⁶ cm/s | 8.6 nM | 52 nM | 30 | half-life [1]: 76.2 min; half-life [8]: > 180 min; Stability [10]: Stable; Cmax [4]: 87.5 ng/mL; Tmax [11]: 20 min; half-life [5]: 68.4 min; AUC(0-t) at 24 h [6]: 72.9 ng·h/mL |
| CC1(C)COC(=O)[C@@H]2C[C@@H](C[C@@H](C#N)NC(=O)[C@@H]3[C@@H]4[C@H](CN3C(=O)[C@H]1NC(=O)OC1CC1)C4(C)C)C(=O)N2 | > 180 min | 0.08 ×10⁻⁶ cm/s | 17 nM | 67 nM | 20 | half-life [8]: > 180 min |
| CC1(C)COC(=O)[C@@H]2C[C@@H](C[C@@H](C#N)NC(=O)[C@@H]3[C@@H]4[C@H](CN3C(=O)[C@H]1NC(=O)C(F)(F)Cc1ccccc1)C4(C)C)C(=O)N2 | 1.7 min | 0.08 ×10⁻⁶ cm/s | 23 nM | 49 nM | 154 | – |
| CN1CC(C)(C)[C@H](NC(=O)C(F)(F)F)C(=O)N2C[C@H]3[C@@H]([C@H]2C(=O)N[C@H](C#N)C[C@@H]2C[C@H](NC2=O)C1=O)C3(C)C | – | – | > 10000 nM | > 10000 nM | – | – |
| CC1(C)COC(=O)[C@@H]2C[C@@H](C[C@@H](C#N)NC(=O)[C@@H]3[C@@H]4[C@H](CN3C(=O)[C@H]1NC(=O)OCc1ccccc1)C4(C)C)C(=O)N2 | 6.5 min | 0.16 ×10⁻⁶ cm/s | 6.4 nM | 25 nM | 108 | – |
| CC1(C)CNC(=O)[C@@H]2C[C@@H](C[C@@H](C#N)NC(=O)[C@@H]3[C@@H]4[C@H](CN3C(=O)[C@H]1NC(=O)C(F)(F)F)C4(C)C)C(=O)N2 | > 180 min | – | 18 nM | 264 nM | – | – |
| CC1(C)COC(=O)[C@@H]2C[C@@H](C[C@@H](C#N)NC(=O)[C@@H]3[C@@H]4[C@H](CN3C(=O)[C@H]1NC(=O)C(F)(F)C1CC1)C4(C)C)C(=O)N2 | 71 min | 0.13 ×10⁻⁶ cm/s | 14 nM | 36 nM | 96.4 | half-life [1]: 34.8 min; Cmax [4]: 131 ng/mL; Tmax [11]: 20 min; half-life [5]: 38.5 min; AUC(0-t) at 24 h [6]: 119 ng·h/mL |
| CC1(C)CNC(=O)[C@@H]2C[C@@H](C[C@@H](C#N)NC(=O)[C@@H]3[C@@H]4[C@H](CN3C(=O)[C@H]1NC(=O)OCc1ccccc1)C4(C)C)C(=O)N2 | 4.3 min | – | 8.8 nM | 73 nM | – | half-life [1]: 4.3 min |
